Results as given in the NIST ThermoML archive (doi:10.1016/j.jct.2011.07.021).
Numbers after ± are expanded uncertainties.

How the values were obtained:
[1] = relative permittivity at zero frequency (dimensionless); xn = mol fraction of the nth substance listed; conditions: 101 kPa, Liquid, Parallel plate capacitor
[2] = refractive index (Na D-line) (dimensionless); xn = mol fraction of the nth substance listed; conditions: 101 kPa, Liquid, Standard Abbe refractometry
[3] = 101.33 kPa, Liquid, Vibrating tube method
[4] = refractive index (Na D-line) (dimensionless); conditions: 101.33 kPa, Liquid, Standard Abbe refractometry
[5] = relative permittivity at zero frequency (dimensionless); conditions: 101.33 kPa, Liquid, Parallel plate capacitor

SMILES | mass density ([3]; 298.2 K) | mass density ([3]; 308.2 K) | mass density ([3]; 318.2 K) | refractive index ([4]; 298.2 K) | refractive index ([4]; 308.2 K) | refractive index ([4]; 318.2 K) | relative permittivity at zero frequency ([5]; 298.2 K) | relative permittivity at zero frequency ([5]; 308.2 K) | relative permittivity at zero frequency ([5]; 318.2 K) | other results
CCC(O)CO (centres undefined) [1,2-butanediol] + CCCCC(CC)CO |  |  |  |  |  |  |  |  |  | relative permittivity at zero frequency ([1]; 298.2 K, x1 = 1): 22.143 ± 0.037; relative permittivity at zero frequency ([1]; 308.2 K, x1 = 1): 20.365 ± 0.036; relative permittivity at zero frequency ([1]; 318.2 K, x1 = 1): 18.661 ± 0.036; refractive index ([2]; 298.2 K, x1 = 1): 1.4372 ± 0.0005; refractive index ([2]; 308.2 K, x1 = 1): 1.4312 ± 0.0005; refractive index ([2]; 318.2 K, x1 = 1): 1.4281 ± 0.0005
CCC(O)CO (centres undefined) [1,2-butanediol] | 998.67 ± 0.85 kg/m3 | 991.15 ± 0.84 kg/m3 | 983.55 ± 0.83 kg/m3 | 1.4372 ± 0.0005 | 1.433 ± 0.0005 | 1.4288 ± 0.0005 | 22.143 ± 0.037 | 20.365 ± 0.036 | 18.661 ± 0.036 | 
CCCCC(CC)CO (centres undefined) [2-ethyl-1-hexanol] | 830.62 ± 0.22 kg/m3 | 823.1 ± 0.22 kg/m3 | 814.91 ± 0.23 kg/m3 | 1.4293 ± 0.0004 | 1.4252 ± 0.0004 | 1.4213 ± 0.0004 | 7.353 ± 0.022 | 6.361 ± 0.021 | 5.522 ± 0.02 | 
C1COCCO1 [1,4-dioxane] | 1027.9 ± 0.27 kg/m3 | 1016.11 ± 0.26 kg/m3 | 1005 ± 0.3 kg/m3 | 1.4201 ± 0.0004 | 1.4142 ± 0.0004 | 1.4084 ± 0.0004 | 2.228 ± 0.01 | 2.21 ± 0.01 | 2.187 ± 0.01 | 
C1COCCO1 [1,4-dioxane] + CCC(O)CO |  |  |  |  |  |  |  |  |  | relative permittivity at zero frequency ([1]; 298.2 K, x2 = 0): 2.228 ± 0.01; relative permittivity at zero frequency ([1]; 308.2 K, x2 = 0): 2.209 ± 0.01; relative permittivity at zero frequency ([1]; 318.2 K, x2 = 0): 2.187 ± 0.01; refractive index ([2]; 298.2 K, x2 = 0): 1.4201 ± 0.0004; refractive index ([2]; 308.2 K, x2 = 0): 1.4142 ± 0.0004; refractive index ([2]; 318.2 K, x2 = 0): 1.4084 ± 0.0004
